# Tested on: MDA-MB-231 in situ breast cancer mouse tumor model
# Assay: Inhibition of breast cancer growth by nanoparticles carrying docetaxel
# Type: in vivo, nude mouse
# Settings: 70 μg DTXL (3.5 mg/kg), 3 administrations, period 7 days
# Method: In this Example, a MDA-MB-231 in situ breast cancer mouse tumor model was used. The specific process of establishing the model was as follows. MDA-MB-231 cells were cultured in a DMEM complete medium. The cells were cultured with a serum-free DMEM 6 hours before the model was established, and digested with trypsin. The cells were collected by centrifugation at 1000 rpm, and resuspended with PBS to allow the density of the cells to be up to 2×10^7cells/mL. 100 μL of the cell suspension was injected to the second right breast of a nude mouse. In this Example, mPEG113-b-PDLLA72, mPEG113-Dlinkm-PDLLA70, and mPEG113-Dlink-PDLLA75 were used to produce drug loaded nanoparticles.
# Nude mice, which were injected with breast cancer cells in situ, were bred in a SPF-level animal room for about 7 days, and visible tumors may be formed. The volume of the tumor was calculated according to the equation: V=0.5*a*b*b, wherein a refers to a longer diameter of the tumor and b refers to a shorter diameter of the tumor. When the tumor volume of the nude mouse reaches about 60 mm^3, treatment was performed. 20 g nude mice inoculated with MDA-MB-231 tumor were divided into 5 groups according to the following manners of treatment, and each group has 5 nude mice. […] A treatment period was 7 days and 3 administrations were performed. The tumor volume was measured every 3 days. […]
compound,measurement,value
"CC(=O)O[C@@]12CO[C@@H]1C[C@H](O)[C@@]1(C)C(=O)[C@H](O)C3=C(C)[C@@H](OC(=O)[C@H](O)[C@@H](NC(=O)OC(C)(C)C)c4ccccc4)C[C@@](O)([C@@H](OC(=O)c4ccccc4)[C@H]21)C3(C)C [DTXL, docetaxel]",inhibitory effect on tumor growth,no inhibitory effect
